{"source": "patent US20230094952A1", "about": "“Method for Culturing Hematopoietic Stem Cells” (Sumitomo Pharma Co., Ltd., priority 2019, published 2023)", "key": {"mouse HoxB5": {"tested_on": "mouse HoxB5", "assay": "Confirmation test by gene expression of mouse HoxB5 (qRT-PCR)", "assay_type": "cell-based", "conditions": "for mGAPDH Ct value / mHoxB5 Ct value: day 7 of culture; for Ct value difference: mHoxB5 minus mGAPDH", "procedure": "Cells cultured in the presence of artemether were evaluated by gene expression of mouse HoxB5. Cells were cultured in the same manner as in Example 3, and the cells after culture were treated with a Single Cell to CT qRT-PCR kit (manufactured by Life Technologies) according to the instruction of the kit. The cells treated were washed once with PBS, a cell-lysing solution was then added thereto, and the resultant was subjected to RNA extraction followed by reverse transcription reaction for cDNA synthesis, amplified through Taqman Gene Expression Assay in 14 cycles, and diluted with 1×TE buffer (pH 8.0). Real-time PCR was performed with the following Taqman probes at 95° C. for 3 seconds and at 60° C. for 30 seconds in 40 cycles to amplify the sample (HoxbB5: Mm00657672 (manufactured by Thermo Fisher Scientific), Gapdh: Mm99999915-g1 (manufactured by Thermo Fisher Scientific)). All the thermal cycler operations were analyzed by using a QuantStudio 6 (manufactured by Applied Biosystems) (Table 5).\nFrom Table 5, we were able to confirm, by allowing the compound to act, the expression of the long-term hematopoietic stem cell marker HoxB5 in cells on day 7 of culture under culture conditions such that the mouse HoxB5 Ct value was 30 or less and the ACT value was 16 or less."}, "[1]": {"tested_on": "mouse long-term hematopoietic stem cells", "assay": "Combination test with UM171 on mouse long-term hematopoietic stem cells", "assay_type": "cell-based", "conditions": "n=2", "procedure": "The cells after classification were seeded in a 96-well plate. A cell culture medium was prepared by adding Stem Cell Factor (SCF, manufactured by PeproTech, Inc.) and Thrombopoietin (TPO, manufactured by PeproTech, Inc.) to StemSpan SFEM culture medium (manufactured by […] Technologies Inc.) and added in advance to a cell culture 96-well plate (manufactured by BD Biosciences) at 100 μL/well, and the cells sorted with the FACS Aria II cell sorter (BD Biosciences) were then seeded at 10 cells/well.\nThe test compounds each in the form of 10 mM DMSO solution were diluted with the cell culture medium to a final concentration of 1 μM, and added to the cells seeded after classification through medium exchange to a final volume of 200 μL/well. Thereafter, the cells were cultured in a CO2 incubator under conditions of 37° C. and 5% CO2 for 1 week.\nAfter culture, the cells were stained with the antibodies for the surface markers c-Kit and Sca-1, Ter-119, B220, CD3, CD4, CD8a, Gr-1, and CD11b, and the ratio and post-growth cell count of a KLS fraction (c-Kit^+, Lin^−, Sca-1^+) or an mCherry-positive fraction given with use of a FACS Aria II cell sorter were analyzed by using FlowJo (BD Biosciences). The mCherry-positive fraction is a cell fraction expressing the Hoxb5 gene, and the KLS fraction is a cell fraction being c-Kit-positive, Lin-negative, and Sca-1-positive, and includes hematopoietic stem cells and multipotent progenitor cells as main components.\nA DMSO solution of artemether was adjusted with the cell culture medium to three final concentrations (0.1 μM, 1 μM, 10 μM), and a DMSO solution of UM171 was adjusted with the cell culture medium to four final concentrations (0.1 μM, 0.3 μM, 1 μM, 3 μM), and cell culture was performed at n=2 by the same method as in Example 1. The cell culture and evaluation criteria were the same as those in Example 2."}, "[2]": {"conditions": "artemether 0.1 μM + UM171 0.1 μM"}, "[3]": {"conditions": "artemether 0.1 μM + UM171 0.3 μM"}, "[4]": {"conditions": "artemether 10 μM + UM171 0.1 μM"}, "[5]": {"conditions": "artemether 10 μM + UM171 0.3 μM"}}, "data": [{"molecule": "CO[C@H]1O[C@@H]2O[C@@]3(C)CC[C@H]4[C@H](C)CC[C@@H]([C@H]1C)[C@@]24OO3", "note": "[Example 1-30, artemether, reference compound]", "values": [{"measurement": "mGAPDH Ct value", "setting": "mouse HoxB5; compound 0.03 μM", "result": 13.12}, {"measurement": "mHoxB5 Ct value", "setting": "mouse HoxB5; compound 0.03 μM", "result": 30.72}, {"measurement": "mGAPDH Ct value", "setting": "mouse HoxB5; compound 0.1 μM", "result": 13.23}, {"measurement": "mHoxB5 Ct value", "setting": "mouse HoxB5; compound 0.1 μM", "result": 30.57}, {"measurement": "mGAPDH Ct value", "setting": "mouse HoxB5; compound 0.3 μM", "result": 14.47}, {"measurement": "mHoxB5 Ct value", "setting": "mouse HoxB5; compound 0.3 μM", "result": 28.79}, {"measurement": "mGAPDH Ct value", "setting": "mouse HoxB5; compound 1 μM", "result": 13.02}, {"measurement": "mHoxB5 Ct value", "setting": "mouse HoxB5; compound 1 μM", "result": 31.18}, {"measurement": "mGAPDH Ct value", "setting": "mouse HoxB5; compound 3 μM", "result": 13.90}, {"measurement": "mHoxB5 Ct value", "setting": "mouse HoxB5; compound 3 μM", "result": 28.99}, {"measurement": "mGAPDH Ct value", "setting": "mouse HoxB5; compound 10 μM", "result": 17.68}, {"measurement": "mHoxB5 Ct value", "setting": "mouse HoxB5; compound 10 μM", "result": 27.62}, {"measurement": "Ct value difference", "setting": "mouse HoxB5; compound 0.03 μM", "result": 17.60}, {"measurement": "Ct value difference", "setting": "mouse HoxB5; compound 0.1 μM", "result": 17.34}, {"measurement": "Ct value difference", "setting": "mouse HoxB5; compound 0.3 μM", "result": 14.31}, {"measurement": "Ct value difference", "setting": "mouse HoxB5; compound 1 μM", "result": 18.16}, {"measurement": "Ct value difference", "setting": "mouse HoxB5; compound 3 μM", "result": 15.10}, {"measurement": "Ct value difference", "setting": "mouse HoxB5; compound 10 μM", "result": 9.94}, {"measurement": "KLS-positive rate", "setting": "[1]; [2]", "result": 52.0, "unit": "%"}, {"measurement": "Viable cell count", "setting": "[1]; [2]", "result": 430.0, "unit": "cell"}, {"measurement": "mCherry-positive rate", "setting": "[1]; [2]", "result": 51.8, "unit": "%"}, {"measurement": "KLS-positive rate", "setting": "[1]; [3]", "result": 42.0, "unit": "%"}, {"measurement": "Viable cell count", "setting": "[1]; [3]", "result": 257.0, "unit": "cell"}, {"measurement": "mCherry-positive rate", "setting": "[1]; [3]", "result": 78.1, "unit": "%"}, {"measurement": "KLS-positive rate", "setting": "[1]; artemether 0.1 μM + UM171 1 μM", "result": 93.4, "unit": "%"}, {"measurement": "Viable cell count", "setting": "[1]; artemether 0.1 μM + UM171 1 μM", "result": 28.5, "unit": "cell"}, {"measurement": "mCherry-positive rate", "setting": "[1]; artemether 0.1 μM + UM171 1 μM", "result": 100.0, "unit": "%"}, {"measurement": "KLS-positive rate", "setting": "[1]; artemether 0.1 μM + UM171 3 μM", "result": 60.6, "unit": "%"}, {"measurement": "Viable cell count", "setting": "[1]; artemether 0.1 μM + UM171 3 μM", "result": 101.5, "unit": "cell"}, {"measurement": "mCherry-positive rate", "setting": "[1]; artemether 0.1 μM + UM171 3 μM", "result": 82.4, "unit": "%"}, {"measurement": "KLS-positive rate", "setting": "[1]; artemether 1 μM + UM171 0.1 μM", "result": 33.1, "unit": "%"}, {"measurement": "Viable cell count", "setting": "[1]; artemether 1 μM + UM171 0.1 μM", "result": 269.0, "unit": "cell"}, {"measurement": "mCherry-positive rate", "setting": "[1]; artemether 1 μM + UM171 0.1 μM", "result": 96.3, "unit": "%"}, {"measurement": "KLS-positive rate", "setting": "[1]; artemether 1 μM + UM171 0.3 μM", "result": 48.6, "unit": "%"}, {"measurement": "Viable cell count", "setting": "[1]; artemether 1 μM + UM171 0.3 μM", "result": 151.0, "unit": "cell"}, {"measurement": "mCherry-positive rate", "setting": "[1]; artemether 1 μM + UM171 0.3 μM", "result": 99.1, "unit": "%"}, {"measurement": "KLS-positive rate", "setting": "[1]; artemether 1 μM + UM171 1 μM", "result": 93.7, "unit": "%"}, {"measurement": "Viable cell count", "setting": "[1]; artemether 1 μM + UM171 1 μM", "result": 23.0, "unit": "cell"}, {"measurement": "mCherry-positive rate", "setting": "[1]; artemether 1 μM + UM171 1 μM", "result": 100.0, "unit": "%"}, {"measurement": "KLS-positive rate", "setting": "[1]; artemether 1 μM + UM171 3 μM", "result": 67.3, "unit": "%"}, {"measurement": "Viable cell count", "setting": "[1]; artemether 1 μM + UM171 3 μM", "result": 23.5, "unit": "cell"}, {"measurement": "mCherry-positive rate", "setting": "[1]; artemether 1 μM + UM171 3 μM", "result": 100.0, "unit": "%"}, {"measurement": "KLS-positive rate", "setting": "[1]; [4]", "result": 56.7, "unit": "%"}, {"measurement": "Viable cell count", "setting": "[1]; [4]", "result": 122.0, "unit": "cell"}, {"measurement": "mCherry-positive rate", "setting": "[1]; [4]", "result": 99.6, "unit": "%"}, {"measurement": "KLS-positive rate", "setting": "[1]; [5]", "result": 91.1, "unit": "%"}, {"measurement": "Viable cell count", "setting": "[1]; [5]", "result": 38.0, "unit": "cell"}, {"measurement": "mCherry-positive rate", "setting": "[1]; [5]", "result": 100.0, "unit": "%"}, {"measurement": "KLS-positive rate", "setting": "[1]; artemether 10 μM + UM171 1 μM", "result": 95.9, "unit": "%"}, {"measurement": "Viable cell count", "setting": "[1]; artemether 10 μM + UM171 1 μM", "result": 9.5, "unit": "cell"}, {"measurement": "mCherry-positive rate", "setting": "[1]; artemether 10 μM + UM171 1 μM", "result": 100.0, "unit": "%"}, {"measurement": "KLS-positive rate", "setting": "[1]; artemether 10 μM + UM171 3 μM", "result": 94.7, "unit": "%"}, {"measurement": "Viable cell count", "setting": "[1]; artemether 10 μM + UM171 3 μM", "result": 19.0, "unit": "cell"}, {"measurement": "mCherry-positive rate", "setting": "[1]; artemether 10 μM + UM171 3 μM", "result": 96.9, "unit": "%"}]}]}
